Assay results reported in patent publication US11759455B2, “Substituted 1H-imidazo[4,5-b]pyridin-2(3H)-ones and their use as GLUN2B receptor modulators” (JANSSEN PHARMACEUTICA NV, priority 2016, dated 2023).

target: T1, human GluN1/GluN2B NMDA receptors (Homo sapiens, UniProt Q05586+Q13224); assay: Cell-based calcium flux (FLIPR) assay on cloned human NR1/NR2B ion channels expressed in mammalian cells (standard and HTS buffer variants); conditions: HTS assay buffer (1.5 mM MgCl2 dye loading; 150 mM NaCl, 3 mM KCl assay buffer), human GluN1/GluN2B cells, read-out: NR2B IC50 (μM) HTS assay;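 also: stable Tet-On inducible cell line, Ca2+ influx triggered by glutamate at about EC40 plus 10 µM glycine, fluorescent dye read-out over 5 min, normalized to control wells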
T1 construct: expressed in transfected cells
T1 sequence (Q13224 27-1484, other chains not shown): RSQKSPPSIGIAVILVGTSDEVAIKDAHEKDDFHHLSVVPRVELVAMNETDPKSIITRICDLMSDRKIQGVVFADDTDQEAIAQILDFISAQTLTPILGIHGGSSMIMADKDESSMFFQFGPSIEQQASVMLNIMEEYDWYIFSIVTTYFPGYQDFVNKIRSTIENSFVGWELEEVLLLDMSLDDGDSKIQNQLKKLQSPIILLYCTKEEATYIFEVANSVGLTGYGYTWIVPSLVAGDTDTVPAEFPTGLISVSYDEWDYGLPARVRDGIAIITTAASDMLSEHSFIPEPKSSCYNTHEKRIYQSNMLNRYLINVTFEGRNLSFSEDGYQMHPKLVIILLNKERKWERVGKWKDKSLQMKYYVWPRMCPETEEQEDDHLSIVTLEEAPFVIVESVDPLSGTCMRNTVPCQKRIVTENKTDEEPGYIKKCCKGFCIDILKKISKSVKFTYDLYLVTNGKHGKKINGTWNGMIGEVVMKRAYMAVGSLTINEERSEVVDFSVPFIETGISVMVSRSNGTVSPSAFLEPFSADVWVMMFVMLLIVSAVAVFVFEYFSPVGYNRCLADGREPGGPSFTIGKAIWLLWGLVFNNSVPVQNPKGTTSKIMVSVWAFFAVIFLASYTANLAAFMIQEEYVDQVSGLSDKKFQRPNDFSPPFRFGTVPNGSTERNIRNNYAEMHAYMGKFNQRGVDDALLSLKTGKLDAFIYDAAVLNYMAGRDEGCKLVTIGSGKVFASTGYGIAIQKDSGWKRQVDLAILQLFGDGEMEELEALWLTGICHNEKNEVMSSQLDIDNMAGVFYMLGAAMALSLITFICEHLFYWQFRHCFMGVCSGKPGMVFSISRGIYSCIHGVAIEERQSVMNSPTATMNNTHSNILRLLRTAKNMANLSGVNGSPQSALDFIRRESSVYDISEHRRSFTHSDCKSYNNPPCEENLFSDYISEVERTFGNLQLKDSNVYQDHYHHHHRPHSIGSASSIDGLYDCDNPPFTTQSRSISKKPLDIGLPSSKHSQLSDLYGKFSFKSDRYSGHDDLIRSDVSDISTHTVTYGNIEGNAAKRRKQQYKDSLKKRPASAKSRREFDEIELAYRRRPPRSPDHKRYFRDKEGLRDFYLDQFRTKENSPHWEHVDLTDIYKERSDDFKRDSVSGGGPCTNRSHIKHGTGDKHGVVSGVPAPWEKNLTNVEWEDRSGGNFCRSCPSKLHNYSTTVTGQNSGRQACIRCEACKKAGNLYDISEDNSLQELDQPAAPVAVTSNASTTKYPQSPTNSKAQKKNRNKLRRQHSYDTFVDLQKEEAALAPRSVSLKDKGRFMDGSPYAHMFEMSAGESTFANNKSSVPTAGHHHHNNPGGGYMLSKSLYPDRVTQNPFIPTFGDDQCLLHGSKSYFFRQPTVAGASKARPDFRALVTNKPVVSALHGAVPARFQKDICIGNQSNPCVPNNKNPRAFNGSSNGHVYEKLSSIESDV

| IC50 [µM] | SMILES |
| --- | --- |
| 3.49 | CCC(O)Cn1c(=O)[nH]c2ncc(-c3ccc(F)cc3C)cc21 (single isomer, unassigned) [Example 43, (R*)-6-(4-Fluoro-2-methyl-phenyl)-1-(2-hydroxybutyl)-3H-imidazo[4,5-b]pyridin-2-one] |
| 0.325 | CCC(O)Cn1c(=O)[nH]c2ncc(-c3ccc(F)cc3C)cc21 (single isomer, unassigned) [Example 44, (S*)-6-(4-Fluoro-2-methyl-phenyl)-1-(2-hydroxybutyl)-3H-imidazo[4,5-b]pyridin-2-one] |

same assay, conditions: standard assay buffer (0.5 mM MgCl2 dye loading; 137 mM NaCl, 4 mM KCl assay buffer), human GluN1/GluN2B cells, read-out: NR2B IC50 (μM) standard assay

| IC50 [µM] | SMILES |
| --- | --- |
| 0.036 | O=c1[nH]c2ncc(-c3cccc(C(F)(F)F)c3)cc2n1CC1CCO1 (single isomer, unassigned) [Example 223, (R*)-1-(Oxetan-2-ylmethyl)-6-[3-(trifluoromethyl)phenyl]-3H-imidazo[4,5-b]pyridin-2-one] |
| 0.054 | O=c1[nH]c2ncc(-c3cccc(C(F)(F)F)c3)cc2n1CC1CCO1 (single isomer, unassigned) [Example 224, (S*)-1-(Oxetan-2-ylmethyl)-6-[3-(trifluoromethyl)phenyl]-3H-imidazo[4,5-b]pyridin-2-one] |
| 0.018 | Cn1c(=O)n(CC(=O)N2CC(F)C2)c2cc(-c3csc(C(F)(F)F)c3)cnc21 [Example 102, 1-[2-(3-Fluoroazetidin-1-yl)-2-oxo-ethyl]-3-methyl-6-[5-(trifluoromethyl)-3-thienyl]imidazo[4,5-b]pyridin-2-one] |
| 2.96 | [2H]C([2H])([2H])OCc1ccc(-c2cnc3c(c2)n(CC(=O)N(C)C)c(=O)n3C)s1 [Example 121, N,N-Dimethyl-2-[3-methyl-2-oxo-6-[5-(trideuteriomethoxymethyl)-2-thienyl]imidazo[4,5-b]pyridin-1-yl]acetamide] |
| 1.22 | [2H]C([2H])([2H])OCc1ccc(-c2cnc3c(c2)n(CC(=O)N2CCC2)c(=O)n3C)s1 [Example 122, 1-[2-(Azetidin-1-yl)-2-oxo-ethyl]-3-methyl-6-[5-(trideuteriomethoxymethyl)-2-thienyl]imidazo[4,5-b]pyridin-2-one] |
| 1.82 | [2H]C([2H])([2H])OCc1ccc(-c2cnc3c(c2)n(CC(=O)N2CC(F)C2)c(=O)n3C)s1 [Example 123, 1-[2-(3-Fluoroazetidin-1-yl)-2-oxo-ethyl]-3-methyl-6-[5-(trideuteriomethoxymethyl)-2-thienyl]imidazo[4,5-b]pyridin-2-one] |

| SMILES | IC50 [µM] |
| --- | --- |
| [2H]c1c(-c2ccc(C(F)(F)F)s2)cnc2c1n(CC(=O)N1CCC1)c(=O)n2C [Example 120, 1-(2-(Azetidin-1-yl)-2-oxoethyl)-3-methyl-6-(5-(trifluoromethyl)thiophen-2-yl)-1,3-dihydro-2H-imidazo[4,5-b]pyridin-2-one-7-D] | 0.01 |

same assay, conditions: standard assay buffer (0.5 mM MgCl2 in dye loading buffer; 137 mM NaCl, 4 mM KCl in assay buffer), human GluN1/GluN2B, read-out: NR2B IC50 (μM) standard assay

| IC50 [µM] | SMILES |
| --- | --- |
| 0.013 | Cc1cc(-c2cnc3c(c2)n(CC(=O)N2CCC2)c(=O)n3C)ccc1F [Example 410, 1-[2-(Azetidin-1-yl)-2-oxo-ethyl]-6-(4-fluoro-3-methyl-phenyl)-3-methyl-imidazo[4,5-b]pyridin-2-one] |
| 1.63 | COc1ccc(-c2cnc3[nH]c(=O)n(CC(=O)C(C)(C)C)c3c2)cc1 [Example 601, 1-(3,3-Dimethyl-2-oxo-butyl)-6-(4-methoxyphenyl)-3H-imidazo[4,5-b]pyridin-2-one] |
| 1.29 | COc1ccc(-c2cnc3[nH]c(=O)n(CC(=O)C(C)(C)C)c3c2)cc1C [Example 603, 1-(3,3-Dimethyl-2-oxo-butyl)-6-(4-methoxy-3-methyl-phenyl)-3H-imidazo[4,5-b]pyridin-2-one] |
| 1.82 | COc1ccc(-c2cnc3[nH]c(=O)n(CC(C)C)c3c2)cc1 [Example 604, 1-Isobutyl-6-(4-methoxyphenyl)-3H-imidazo[4,5-b]pyridin-2-one] |
| 1.02 | COc1ccc(-c2cnc3[nH]c(=O)n(Cc4ccccc4C#N)c3c2)cc1C [Example 608, 2-[[6-(4-Methoxy-3-methyl-phenyl)-2-oxo-3H-imidazo[4,5-b]pyridin-1-yl]methyl]benzonitrile] |
| 0.263 | COc1ccc(-c2cnc3[nH]c(=O)n(CC(=O)C(C)(C)C)c3c2)cc1F [Example 609, 1-(3,3-Dimethyl-2-oxo-butyl)-6-(3-fluoro-4-methoxy-phenyl)-3H-imidazo[4,5-b]pyridin-2-one] |
